Data on four compounds can be found in the NIST ThermoML archive (doi:10.1016/j.fluid.2006.06.024).

The series in a line: activity coefficient (dimensionless); of the first substance listed, at infinite dilution; xn = mol fraction of the nth substance listed. The settings on record: Gas, Chromatography, x1 = 0.

± gives the expanded uncertainty stated by the source.

For the compound `C=CC=C` [1,3-butadiene] + CO, the activity coefficient (374 K) was determined as 5 ± 0.2, the activity coefficient (393.3 K) amounted to 4.7 ± 0.2 and the activity coefficient (412.5 K) was 4.2 ± 0.2.

With `C/C=C/C` [(E)-2-butene] + CO, the activity coefficient reads like this: (375.2 K) 7.3 ± 0.3; (394.8 K) 6.6 ± 0.3; (412.6 K) 6 ± 0.3.

As to `C=CCC` [1-butene] + CO, the activity coefficient (374 K) turned out to be 7 ± 0.3, the activity coefficient (394.8 K) was 6.1 ± 0.3 and the activity coefficient (412.5 K) amounted to 5.6 ± 0.3.

As for `C=C(C)C` [2-methylpropene] + CO, the activity coefficient runs as follows: (374 K) 6.5 ± 0.3; (393.3 K) 6 ± 0.3; (412.5 K) 5.4 ± 0.3.
